Assays:
HCT-116 = experiment: Cytotoxicity against human HCT116 cells assessed as reduction in cell viability after 24 hrs by fluorescence based assay; assay type: functional; settings: HCT-116, 24 h
HaCaT = experiment: Cytotoxicity against human HaCaT cells assessed as reduction in cell viability after 24 hrs by fluorescence based assay

O=C1C2=C3C4=[N+](CCc5c[nH]c1c54)[C@@H]1C(=O)C=C4S[C@H](C[C@]43[C@H]1O)N2
IC50 (HCT-116): 940 nM

O=C1C=C(S[C@@H]2[C@H]3C(=O)C=C4S[C@H]5C[C@@]42C2=C(N5)C(=O)c4[nH]cc5c4C2=[N+]3CC5)[C@@]2(C=CNC3=C2c2nccc4cn([C@H]5[C@H]6C(=O)C=C7S[C@H]8C[C@]75C5=C(N8)C(=O)c7[nH]cc8c7C5=[N+]6CC8)c(c24)C3=O)C=C1Br
IC50 (HaCaT): 920 nM | IC50 (HCT-116): 310 nM

From ChEMBL document CHEMBL4613255, “Tridiscorhabdin and Didiscorhabdin, the First Discorhabdin Oligomers Linked with a Direct C-N Bridge from the Sponge Latrunculia biformis Collected from the Deep Sea in Antarctica” (J Nat Prod, 2020)
